Data taken from US20160257986A1, “Bacterial Diagnosis” (SRI INTERNATIONAL, priority 2013, published 2016).

Assays:
Type in all cases: cell-based
[1] = system: P. aeruginosa (ATCC 27853); test: MIC of ciprofloxacin against P. aeruginosa; conditions: Pseudomonas aeruginosa, ATCC27853
[2] = system: P. aeruginosa (ATCC 27853); test: Simultaneous antibiotic susceptibility (DHR 123) and species identification (anti-P. aeruginosa antibody) by flow cytometry; conditions: dihydrorhodamine 123 5 μM; 3 hour and 4 hour timepoints
Procedure: Cultures of P. aeruginosa (ATCC 27853) were inoculated in 3 ml Mueller-Hinton broth (MHB) with an OD600 of 0.06. After 2 hours at 37 C, the cultures were at OD600 of 0.150. At time =0 hours, a test antibiotic (ciprofloxacin) or vehicle (DMSO) was added to each culture along with dihydrorhodamine 123 at 5 μM final concentration. At 3 hour and 4 hour timepoints,1 mL of the P. aeruginosa cells were centrifuged and resuspended in FACS buffer with a primary anti-Pseudomonas antibody (rabbit polyclonal Anti-Pseudomonas antibody (ab68538, abcam, Cambridge, Mass.)), and incubated for 15 minutes. The tubes were then centrifuged and resuspended in FACS buffer with a secondary antibody (goat anti-rabbit labeled with Cy7 dye) for another 15 minutes. The samples were then run directly on a FACScaliber flow cytometer for analysis.

[3] = system: E. coli (ATCC 25922); test: MIC of norfloxacin against E. coli; conditions: Escherichia coli, ATCC25922

MIC [1] [µg/mL] | MIC [3] [µg/mL] | Compound | response of DHR 123 labeling to antibiotic [2]
0.25 | – | O=C(O)c1cn(C2CC2)c2cc(N3CCNCC3)c(F)cc2c1=O [ciprofloxacin] | dose-dependent response
– | 0.064 | CCn1cc(C(=O)O)c(=O)c2cc(F)c(N3CCNCC3)cc21 [norfloxacin] | –
